# Results: patent US20150315218A1, “SALTS OF PRODRUGS OF PIPERAZINE AND SUBSTITUTED PIPERIDINE ANTIVIRAL AGENTS” (Bristol-Myers Squibb Company, priority 2004, published 2015)
# Like-named read-outs stand apart in the source and are kept apart here. Marks after values point to notes of the source that are not given here.
# Key:
# [1] = Stability of prodrug in fresh EDTA blood (human); details: Human EDTA blood
# Procedure: The stability of Iab was studied in fresh blood and serum from rat, dog, monkey and human (n=2). The blood was collected in vacutainers containing K2EDTA (Becton Dickinson, Franklin Lakes, N.J.). The serum was collected in vacutainers containing no anticoagulant. Iab was incubated at a starting concentration of approximately 10 μM for 60-90 min at 37° C. Serial samples were taken at the pre-determined times. Aliquots of blood samples (200 μL) were first mixed with 100 μL of water followed by 400 μL of acetonitrile. The serum samples (50 μL) were added into microtainers containing K2EDTA (Becton Dickinson, Franklin Lakes, N.J.) followed by the addition of 100 μL of acetonitrile. The supernatant was analyzed for both Iab and IVa by LC/MS/MS. The stability of Ibb was studied in fresh blood and serum from rat, dog, monkey and human (n=2). The blood was collected in vacutainers containing K2EDTA (Becton Dickinson, Franklin Lakes, N.J.). The serum was collected in vacutainers containing no anticoagulant. Ibb was incubated at a starting concentration of approximately 15 μM for 90 min at 37° C. Serial samples were taken at the pre-determined times. Aliquots of blood samples (200 μL) were first mixed with 100 μL of water followed by 400 μL of acetonitrile. The serum samples (50 μL) were added into microtainers containing K2EDTA (Becton Dickinson, Franklin Lakes, N.J.) followed by the addition of 100 μL of acetonitrile. […] The stability of Icb was studied in fresh blood and serum from rat, dog, monkey and human (n=2). The blood was collected in vacutainers containing K2EDTA (Becton Dickinson, Franklin Lakes, N.J.). The serum was collected in vacutainers containing no anticoagulant. Icb was incubated at a starting concentration of approximately 10 μM for 90 min at 37° C. Serial samples were taken at the pre-determined times. Aliquots of blood samples (200 μL) were first mixed with 100 μL of water followed by 400 μL of acetonitrile. The serum samples (50 μL) were added into microtainers containing K2EDTA (Becton Dickinson, Franklin Lakes, N.J.) followed by the addition of 100 μL of acetonitrile.
# [2] = IV and PO pharmacokinetic studies of prodrug salts (Iab, Ibb, Icb) in the rat, with historical parent data; type: in vivo, Sprague-Dawley rats; details: for Tmax: read-out: Tmax (hr), PO; for Cmax: read-out: Cmax (μM), PO
# Outline: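 Male Sprague-Dawley rats (300-350 g, jugular-cannulated; fasted overnight for PO) received mono-lysine prodrug salts in distilled water: IV bolus over 0.5 min at 1.4 mg/kg free acid, PO gavage at 7.9 mg/kg (Iab) or 6.9 mg/kg (Icb) free acid, n=3. Plasma parameters by non-compartmental analysis; oral bioavailability from dose-normalized AUC ratio.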
# [3] = Single-dose toxicokinetic and tolerability study of prodrugs in dogs; type: in vivo, dog; details: for half-life: read-out: T½ (converted)
# Outline: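 Female dogs (two/group) received prodrug Iab orally once daily at 24, 90 or 240 mg/kg (free acid) as aqueous solution or dry-filled capsules, one-week washouts between doses. Ibb and Icb given to one dog/sex/group as capsules, then aqueous 25 mg/kg or capsules 46 or 125 mg/kg BID. Clinical signs, body weight, food intake and plasma toxicokinetics monitored.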
# [4] = Single-dose oral toxicokinetic study of prodrugs in rats; type: in vivo, rat; details: CD, rat, plasma; for concentration at 24 h / half-life / Cmax: analyte = label; for concentration at 24 h: read-out: C24 h; for half-life: read-out: T½ (converted); for AUC: read-out: AUC
# Outline: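 Male rats, three per group, received a single oral gavage dose of prodrug salt dissolved in water. Doses were 16, 72 or 267 mg/kg (Iab), 19, 64 or 236 mg/kg (Ibb), and 5, 25 or 200 mg/kg (Icb), all as free acid. Plasma toxicokinetics of prodrug and parent IVa were followed in individual animals.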
# [5] = IVa, Iab 24 mg/kg Solution, Dogs #1201, #1202
# [6] = IVa, Iab 90 mg/kg Solution, Dogs #3201, #3202
# [7] = Table 14: 90 mg/kg, Dogs #1201, #1202, 90 mg/kg
# [8] = Table 14: 240 mg/kg, Dogs #2201, #2202, 240 mg/kg
# [9] = female, dog, plasma, po, 24 mg/kg, IVa, Iab 24 mg/kg Dry-filled capsule, Dogs #4201, #4202
# [10] = female, dog, plasma, po, 24 mg/kg, IVa, Iab 24 mg/kg Solution, Dogs #1201, #1202
# [11] = female, dog, plasma, po, 90 mg/kg, IVa, Iab 90 mg/kg Solution, Dogs #3201, #3202
# [12] = female, dog, plasma, po, 90 mg/kg, Table 14: 90 mg/kg, Dogs #1201, #1202
# [13] = female, dog, plasma, po, 240 mg/kg, Table 14: 240 mg/kg, Dogs #2201, #2202
structure (smiles),measurement,setting,value
"COc1ncc(OC)c2c(C(=O)C(=O)N3CCN(C(=O)c4ccccc4)CC3)c[nH]c12 [IVa, N-(benzoyl)-N′-[(4,7-dimethoxy-6-azaindol-3-yl)-oxoacetyl]piperazine]",% IVa Formed (of starting concentration of Iab),[1]; 0 min,0.55%
same,Iab / IVa Formed,[1]; 0 min,0.061 µM
same,% IVa Formed (of starting concentration of Iab),[1]; 15 min,0.59%
same,Iab / IVa Formed,[1]; 15 min,0.067 µM
same,% IVa Formed (of starting concentration of Iab),[1]; 30 min,0.50%
same,Iab / IVa Formed,[1]; 30 min,0.057 µM
same,% IVa Formed (of starting concentration of Iab),[1]; 45 min,0.65%
same,Iab / IVa Formed,[1]; 45 min,0.073 µM
same,% IVa Formed (of starting concentration of Iab),[1]; 60 min,0.75%
same,Iab / IVa Formed,[1]; 60 min,0.084 µM
same,AUC,"[2]; Sprague-Dawley, plasma, historical parent, IV 1 mg/kg, read-out: AUCtot (μM·hr), IV",3.3 ± 1.1 µM·h
same,MRT,"[2]; Sprague-Dawley, plasma, historical parent, IV 1 mg/kg, read-out: MRT (hr), IV",2.2 ± 1.5 h
same,Vd,"[2]; Sprague-Dawley, plasma, historical parent, IV 1 mg/kg, read-out: Vdss (L/kg), IV",1.5 ± 0.25 L/kg
same,half-life,"[2]; Sprague-Dawley, plasma, historical parent, IV 1 mg/kg, read-out: t1/2 (hr), IV (converted)",2.4 ± 0.32 h
same,Tmax,"[2]; Sprague-Dawley, plasma, historical parent, PO 5 mg/kg",2 h
same,half-life,"[2]; Sprague-Dawley, plasma, historical parent, PO 5 mg/kg, read-out: t1/2 (hr), PO (converted)",1.7 ± 0.92 h
same,"CLtot (mL/min/kg), IV","[2]; historical parent, IV 1 mg/kg",13 ± 4.0 mL/min/kg
same,"AUCtot (μM·hr), PO","[2]; historical parent, PO 5 mg/kg",15 ± 6.3 µM·h
same,Bioavailability (%),"[2]; historical parent, PO 5 mg/kg",90%
same,Cmax,"[2]; historical parent, PO 5 mg/kg",4.5 ± 1.5 µM
same,AUC,"[2]; male, Sprague-Dawley, plasma, 7.9 mg/kg, after oral prodrug, analyte = label, ND = not detected (<5 nM), read-out: AUCtot (μM·hr), PO",13 ± 1.4 µM·h
same,Cmax,"[2]; male, Sprague-Dawley, plasma, 7.9 mg/kg, after oral prodrug, analyte = label, ND = not detected (<5 nM)",3.9 ± 0.98 µM
same,half-life,"[2]; male, Sprague-Dawley, plasma, 7.9 mg/kg, parent after oral prodrug, read-out: t1/2 (hr), PO (converted)",1.5 ± 0.24 h
same,AUC,"[2]; male, Sprague-Dawley, plasma, after IV prodrug (~1 mg/kg parent equivalent), analyte = label, read-out: AUCtot (μM·hr), IV",5.4 ± 0.93 µM·h
same,half-life,"[2]; male, Sprague-Dawley, plasma, after IV prodrug, analyte = label, read-out: t1/2 (hr), IV (converted)",4.4 ± 1.9 h
same,bioavailability,"[2]; male, Sprague-Dawley, plasma, oral prodrug, calculated from historical IV data of parent, read-out: Bioavailability (%) of parent from prodrug",62%
same,Tmax,"[2]; male, Sprague-Dawley, plasma, parent after oral prodrug (~5-6 mg/kg parent equivalent)",0.83 h
same,PO AUC Ratio of parent,[2]; oral prodrug vs historical parent,0.69*
same,bioavailability,"[2]; plasma, po, range over rats, dogs and monkeys, read-out: oral bioavailabilities of parent after administration of prodrug",62 to 94%
same,Cmax,"[3]; IVa in female dogs, Iab 24 mg/kg (19 IVa equiv.), Dry-filled capsule, Dogs #4201, #4202",85.6 µM
same,Cmax,"[3]; IVa in female dogs, Iab 24 mg/kg (19 IVa equiv.), Solution, Dogs #1201, #1202",66.5 µM
same,Cmax,"[3]; IVa in female dogs, Iab 90 mg/kg (71 IVa equiv.), Solution, Dogs #3201, #3202",125 µM
same,AUC0-∞,"[3]; IVa, Iab 24 mg/kg Dry-filled capsule, Dogs #4201, #4202",514 µM·h
same,concentration at 24 h,"[3]; IVa, Iab 24 mg/kg Dry-filled capsule, Dogs #4201, #4202, read-out: C24h",0.87 µM
same,AUC0-∞,[3]; [5],330 µM·h
same,T½,[3]; [5],3.1 h
same,concentration at 24 h,"[3]; IVa, Iab 24 mg/kg Solution, Dogs #1201, #1202, read-out: C24h",0.33 µM
same,AUC0-∞,[3]; [6],838 µM·h
same,T½,[3]; [6],3.9 h
same,concentration at 24 h,"[3]; IVa, Iab 90 mg/kg Solution, Dogs #3201, #3202, read-out: C24h",2.2 µM
same,AUC0-∞,[3]; [7],960 µM·h
same,T½,[3]; [7],2.9 h
same,Cmax,"[3]; Table 14: 240 mg/kg (190 IVa equiv.), Formulation Solution, Dogs #2201, #2202, 240 mg/kg",189 µM
same,AUC0-∞,[3]; [8],1584 µM·h
same,T½,[3]; [8],4.5 h
same,Cmax,"[3]; Table 14: 180 (90 BID) mg/kg (142 IVa equiv.), Dry-filled capsule, Dogs #3201, #3202",248 µM
same,AUC0-∞,"[3]; Table 14: 180 (90 BID) mg/kg, Dogs #3201 (AUC from zero to 24 h), #3202",2485 µM·h
same,concentration at 24 h,"[3]; Table 14: 180 (90 BID) mg/kg, Dogs #3201, #3202, read-out: C24h",50 µM
same,Cmax,"[3]; Table 14: IVa in female dogs, 90 mg/kg (71 IVa equiv.), Formulation Solution, Dogs #1201, #1202, 90 mg/kg",152 µM
same,time post-dose at which mean Cmax of parent was achieved,"[3]; dogs, once daily (QD) dosing of prodrug",1 to 2 h
same,concentration at 24 h,"[3]; female, dog, plasma, oral, 24 mg/kg, IVa, Iab 24 mg/kg Dry-filled capsule, Dogs #4201, #4202, read-out: C24 h",1.4 µM
same,concentration at 24 h,"[3]; female, dog, plasma, oral, 24 mg/kg, IVa, Iab 24 mg/kg Solution, Dogs #1201, #1202, read-out: C24 h",0.61 µM
same,concentration at 24 h,"[3]; female, dog, plasma, oral, 90 mg/kg, IVa, Iab 90 mg/kg Solution, Dogs #3201, #3202, read-out: C24 h",3.2 µM
same,concentration at 24 h,"[3]; female, dog, plasma, oral, Table 14: 180 (90 BID) mg/kg, Dogs #3201, #3202, read-out: C24 h",34 µM
same,Cmax,"[3]; female, dog, plasma, po, 24 mg/kg, IVa in female dogs, Iab 24 mg/kg (19 IVa equiv.), Dry-filled capsule, Dogs #4201, #4202",79.7 µM
same,Cmax,"[3]; female, dog, plasma, po, 24 mg/kg, IVa in female dogs, Iab 24 mg/kg (19 IVa equiv.), Solution, Dogs #1201, #1202",72.3 µM
same,AUC(0-inf),[3]; [9],486 µM·h
same,half-life,[3]; [9],252 min
same,AUC(0-inf),[3]; [10],465 µM·h
same,half-life,[3]; [10],192 min
same,Cmax,"[3]; female, dog, plasma, po, 90 mg/kg, IVa in female dogs, Iab 90 mg/kg (71 IVa equiv.), Solution, Dogs #3201, #3202",124 µM
same,AUC(0-inf),[3]; [11],844 µM·h
same,half-life,[3]; [11],264 min
same,AUC(0-inf),[3]; [12],1740 µM·h
same,half-life,[3]; [12],216 min
same,Cmax,"[3]; female, dog, plasma, po, 90 mg/kg, Table 14: IVa in female dogs, 90 mg/kg (71 IVa equiv.), Formulation Solution, Dogs #1201, #1202",214 µM
same,Cmax,"[3]; female, dog, plasma, po, 240 mg/kg, Table 14: 240 mg/kg (190 IVa equiv.), Formulation Solution, Dogs #2201, #2202",172 µM
same,AUC(0-inf),[3]; [13],1190 µM·h
same,half-life,[3]; [13],222 min
same,Cmax,"[3]; female, dog, plasma, po, Table 14: 180 (90 BID) mg/kg (142 IVa equiv.), Dry-filled capsule, Dogs #3201, #3202",311 µM
same,AUC(0-inf),"[3]; female, dog, plasma, po, Table 14: 180 (90 BID) mg/kg, Dogs #3201 (AUC from zero to 24 h), #3202",3300 µM·h
same,concentration at 24 h,"[4]; male rats, Iab 16 mg/kg PO",90 nM
same,half-life,"[4]; male rats, Iab 16 mg/kg PO",192 min
same,concentration at 24 h,"[4]; male rats, Iab 72 mg/kg PO",27 nM
same,half-life,"[4]; male rats, Iab 72 mg/kg PO",138 min
same,AUC,"[4]; male rats, Iab 267 mg/kg PO, AUC from zero to ∞",1160 µM·h
same,concentration at 24 h,"[4]; male rats, Iab 267 mg/kg PO",1900 nM
same,half-life,"[4]; male rats, Iab 267 mg/kg PO",204 min
same,Cmax,"[4]; male rats, single oral dose Iab 16 mg/kg (13 mg/kg IVa molar equiv.), water",26 µM
same,Cmax,"[4]; male rats, single oral dose Iab 72 mg/kg (57 IVa equiv.)",104 µM
same,Cmax,"[4]; male rats, single oral dose Iab 267 mg/kg (211 IVa equiv.)",214 µM
same,AUC,"[4]; male, po, 16 mg/kg",67 µM·h
same,AUC,"[4]; male, po, 72 mg/kg",261 µM·h
